Data set [1] in a line: Reaction of hydrolyzed silanes with treatment enhancers, solution appearance. The class given is physicochemical.
For a further data set, the system named is test microbes. The experiment in a line: Dow Corning Test Method 0923 Dynamic Shake Flask Test (ASTM E-2149-01), Table I. The class given is cell-based. To be noted: shingle, vs untreated controls. The procedure:
(§1) The BPB test is a standardized test known as the Bromphenol Blue Extraction Method having a Dow Corning Corporate test number 0824, except that the test was modified in the following manner. The chlorinated solvent has been eliminated and the wavelength is 595 nm. Further, the Dow Corning® Q25211 has been substituted for the Triton RTM.X100 wetting agent of the test. What is measured is the diminution of the BPB absorbance at 595 nm relative to the BPB standard solution and it is reported in percent extraction. Antimicrobial efficacy was determined using the Dow Corning Test Method 0923 Dynamic Shake Flask Test (ASTM E-2149-01) unless otherwise stated.
Application technologies were compared for a shingle substrate at constant add levels and room temperature conditions. Samples were prepared as follows and compared. The Samples included: antimicrobial agent (AA) by itself (Sample 1) and the (AA) in 0.1M Na2C2O4 (Sample 2) with a polyoxyethylene nonylphenol (the surfactant). Sample 1 treated with Methyl Siliconate is Sample 3, Sample 1 treated with sodium silicate is Sample 4 and sample 1 treated with Everwood is Sample 5. The Samples were handled as in example 1 and tested.

The next data set relates to E. Coli. The experiment in a line: Dynamic Shake Flask Test, % E. Coli reduction. In kind it is cell-based. As to conditions: Example 4, AA 1.25 mg/inch^2, vs untreated control substrates. The procedure: as §1
Studies were carried out to determine if this invention was applicable to various substrates in the building products area, such as Oriented Strand Board (OSB), vinyl siding, polymer wood composite decking and dimensional lumber. The application process was: samples were cut to 2 inches by 2 inches and weighed prior to application. A hand pump mist sprayer was used to treat the substrate. The applications of the silicate/siliconate and (AA) were kept to a minimum of less than 3 seconds application timne. Treated samples were next rinsed with copious cold water to remove any excess treatment material. There was no heating or other curing or drying of the samples.

In the case of `CCO[Si](CC(C)C)(OCC)OCC` [Sample Z-6043, i-butyltriethoxysilane], in data set [1], the “Appearance (at Time Min.)” value was “clear” and the “Appearance (at Time hours)” value is “clear”.
`CCCCCCCCCCCCCCCCCC[N+](C)(C)CCC[Si](OC)(OC)OC.[Cl-]` [Sample 1, N,N-dimethyl-N-Octadecyl-3-(trimethoxysilyl)propanaminium chloride]: the “% Reduction” value with test microbes (AA Actives 0.50%) and with test microbes (AA Actives 1%) was 0% in each case. Besides, in the data set with E. Coli (OSB), the “OSB % Red. ext. (% E. Coli Reduction)” value is 31%. Besides, the “decking % Red. ext. (% E. Coli Reduction)” value in the data set with E. Coli (decking) is reported as 0%. Besides, in the data set on E. Coli (shingle), the “shingle % Red. ext. (% E. Coli Reduction)” value is 11%. Also, the “siding % Red. ext. (% E. Coli Reduction)” value with E. Coli (siding) was 0%. Moreover, the “wood % Red. ext. (% E. Coli Reduction)” value with E. Coli (wood) turned out to be 21%.
With potassium methyl siliconate [DC-777], the appearance on standing entry in data set [1] (treatment enhancer alone, 1.5% actives level, after 4 days of standing) is “white precipitate”.

The values are drawn from patent US20060068118A1, “Silicon-containing treatments for solid substrates” (priority 2003, published 2006).
